Substitutions are numbered along the chain they refer to.
Key:
[1] = biological target: T1, ACVR1^WT (Homo sapiens, UniProt Q04771); test: Promega NanoBRET live-cell target engagement, ACVR1; type: cell-based; conditions: in cellulo; NI = No inhibition at 40 μM
T1 sequence (Q04771 21-509): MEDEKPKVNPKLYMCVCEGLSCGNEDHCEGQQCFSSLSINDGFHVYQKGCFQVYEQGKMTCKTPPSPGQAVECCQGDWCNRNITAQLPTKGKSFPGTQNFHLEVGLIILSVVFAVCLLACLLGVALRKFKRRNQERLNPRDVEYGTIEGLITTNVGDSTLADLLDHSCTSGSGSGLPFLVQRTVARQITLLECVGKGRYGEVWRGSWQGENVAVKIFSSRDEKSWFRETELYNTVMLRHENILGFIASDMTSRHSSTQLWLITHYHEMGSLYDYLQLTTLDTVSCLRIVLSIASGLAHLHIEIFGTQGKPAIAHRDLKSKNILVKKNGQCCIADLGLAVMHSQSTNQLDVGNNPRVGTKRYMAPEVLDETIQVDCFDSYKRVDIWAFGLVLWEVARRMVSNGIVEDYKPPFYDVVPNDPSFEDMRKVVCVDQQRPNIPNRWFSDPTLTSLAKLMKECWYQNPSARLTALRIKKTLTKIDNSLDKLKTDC
Excerpt: (§1) The Promega NanoBRET target engagement system involves cell-based competitive displacement of a fluorescent NanoBRET tracer bound reversibly to a NanoLuc fusion protein. Test compounds displace the tracer dependent on their affinity for the target and reduce […] the NanoBRET signal. […]

[2] = biological target: T2, ACVR1^R206H (Homo sapiens, UniProt Q04771, R206H); test: Promega NanoBRET live-cell target engagement, ACVR1 (R206H); type: cell-based; conditions: in cellulo; NI = No inhibition at 40 μM
T2 sequence (Q04771 21-509 R206H): T1 sequence (Q04771 21-509) with R186H
Excerpt: as §1

[3] = Metabolic stability in mouse liver microsomes; type: in vitro ADME; conditions: some cells add hours in brackets
Excerpt: (§2) Exemplary compounds of the present disclosure have been evaluated for metabolic stability in mouse and human liver microsomes.

[4] = Metabolic stability in human liver microsomes; type: in vitro ADME; conditions: some cells add hours in brackets
Excerpt: as §2

[5] = tested on: BMP2-induced luciferase activity in 293T-BRE-reporter cells; test: BMP2-induced luciferase reporter activity in 293T-BRE reporter cells; type: cell-based; conditions: 0.2, 1, 5, 25 μM, 30 min pre-treatment, 5 ng/ml BMP2, 6 hours
Description: BMP2-dependent luciferase reporter activation was quantified after 6 hours using the Promega BrightGLO luciferase system on a Tecan Infinity M1000 Pro plate reader.
FIG. 10 provides a bar graph depicting inhibition of BMP2-induced luciferase activity in 293T-BRE-reporter cells. Approximately 20,000 cells per well were plated in a 96-well plate and allowed to attach overnight. […] Cells were then stimulated with vehicle or 5 ng/ml BMP2 for 6 hours. Luciferase transactivation was assessed using the Promega BrightGLO luciferase system (Promega) and the signal was quantified using a plate reader (M1000 Pro).

[6] = tested on: pSMAD1/5 in FOP fibroblasts (FOP GM00513); test: BMP2-induced pSMAD1/5 Western blot in primary FOP fibroblasts; type: cell-based, human; conditions: 1, 5, 25 μM, 30 min pre-treatment, 5 ng/mL BMP2 45 min
Description: (§3) FIG. 11 depicts inhibition of phosphorylated SMAD1/5 (pSMAD1/5) in primary WT and FOP fibroblasts. […] Subsequently, the fibroblasts were treated with vehicle (i.e., DMSO) or 5 ng/mL BMP2 in the presence of the inhibitors for 45 minutes. Cell lysates were then probed with antibodies against pSMAD1/5, total SMAD5, total SMAD1, and GAPDH (i.e., loading control) using a Western blot.

[7] = tested on: pSMAD1/5 in WT fibroblasts (WT GM01652); test: BMP2-induced pSMAD1/5 Western blot in primary WT fibroblasts; type: cell-based, human; conditions: 1, 5, 25 μM, 30 min pre-treatment, 5 ng/mL BMP2 45 min
Description: as §3

[8] = biological target: T3, ACVR1 (Homo sapiens, UniProt Q04771); test: ThermoFisher (Lantha) kinase assay, inhibition of ACVR1; type: biochemical; conditions: ThermoFisher Assay, in vitro
T3 construct: purchased ThermoFisher
T3 sequence (Q04771 21-509): T1 sequence (Q04771 21-509)

[9] = biological target: T4, ACVRL1 (Homo sapiens, UniProt P37023); test: ThermoFisher (Lantha) kinase assay, inhibition of ACVRL1; type: biochemical; conditions: in vitro, NA = not active at 1 μM
T4 construct: purchased ThermoFisher
T4 sequence (P37023 22-503): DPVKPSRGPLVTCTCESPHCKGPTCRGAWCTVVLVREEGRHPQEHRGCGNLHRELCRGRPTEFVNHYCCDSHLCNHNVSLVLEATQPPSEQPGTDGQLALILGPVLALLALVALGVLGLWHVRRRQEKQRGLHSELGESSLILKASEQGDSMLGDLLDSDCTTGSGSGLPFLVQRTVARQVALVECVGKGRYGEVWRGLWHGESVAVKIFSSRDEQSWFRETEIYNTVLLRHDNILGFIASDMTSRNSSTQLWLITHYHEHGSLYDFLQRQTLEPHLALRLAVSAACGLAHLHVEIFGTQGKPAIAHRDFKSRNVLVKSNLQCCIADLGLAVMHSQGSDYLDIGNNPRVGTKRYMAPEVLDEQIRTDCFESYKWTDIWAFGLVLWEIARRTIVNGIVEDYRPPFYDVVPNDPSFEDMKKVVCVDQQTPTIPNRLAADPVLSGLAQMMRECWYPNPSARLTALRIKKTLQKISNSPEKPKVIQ

[10] = biological target: T4, ACVRL1; test: Promega NanoBRET live-cell target engagement, ACVRL1; type: cell-based; conditions: in cellulo; NI = No inhibition at 40 μM
Excerpt: The Promega NanoBRET target engagement system involves cell-based competitive displacement of a fluorescent NanoBRET tracer bound reversibly to a NanoLuc fusion protein. Test compounds displace the tracer dependent on their affinity for the target and reduce loss of the NanoBRET signal.
Further, HEK29T cells with stable expression of a BMP reporter element driving luciferase expression can be used to test inhibition of BMP-induced luciferase transactivation. […] Additionally, utilizing the HEPG2 cell system described herein, responsiveness to activin and induction of Hepcidin (HAMP) gene expression can be probed in the presence and absence of ACVR1 inhibitors, as well as the influence of tacrolimus on activin-induced hepcidin gene expression.
Thus, the in cellulo assays described herein comprise a luciferase reporter cell line system.

CNC(=O)[C@H]1C[C@H](n2c(-c3cc(OC)c(OC)c(OC)c3)nc3ccc(C(=O)NCCCN4CCN(C)CC4)cc32)C1 [CDD-2280, 1-((1r,3r)-3-(methylcarbamoyl)cyclobutyl)-N-(3-(4-methylpiperazin-1-yl)propyl)-2-(3,4,5-trimethoxyphenyl)-1H-benzo[d]imidazole-6-carboxamide]
IC50 [1]: > 40 µM
IC50 [2]: > 40 µM
Metabolism MLM [3]: 48 min
Metabolism HLM [4]: 70.7 min

CNC(=O)[C@H]1C[C@H](n2c(-c3cc(OC)c(OC)c(OC)c3)nc3ccc(C(=O)NCCCN(C)C)cc32)C1 [CDD-2281, N-(3-(dimethylamino)propyl)-1-((1r,3r)-3-(methylcarbamoyl)cyclobutyl)-2-(3,4,5-trimethoxyphenyl)-1H-benzo[d]imidazole-6-carboxamide]
IC50 [1]: > 40 µM
IC50 [2]: > 40 µM
Metabolism MLM (Min) [3]: 807.1 (13.4 h) Min
Metabolism HLM (Min) [4]: 769.1 (12.81 h) Min

CNC(=O)[C@H]1C[C@H](n2c(-c3cc(OC)c(OC)c(OC)c3)nc3ccc(C(=O)NCC4CCN(C)CC4)cc32)C1 [CDD-2282, 1-((1r,3r)-3-(methylcarbamoyl)cyclobutyl)-N-((1-methylpiperidin-4-yl)methyl)-2-(3,4,5-trimethoxyphenyl)-1H-benzo[d]imidazole-6-carboxamide]
IC50 [1]: > 40 µM
IC50 [2]: > 40 µM
Metabolism MLM (Min) [3]: 220.4 (3.67 h) Min
Metabolism HLM (Min) [4]: 978 (16.3 h) Min

CNC(=O)[C@H]1C[C@H](n2c(-c3cccc(OC)c3)nc3ccc(C(=O)NCCCN4CCN(c5ccccc5)CC4)cc32)C1 [CDD-2313, 2-(3-methoxyphenyl)-1-((1r,3r)-3-(methylcarbamoyl)cyclobutyl)-N-(3-(4-phenylpiperazin-1-yl)propyl)-1H-benzo[d]imidazole-6-carboxamide]
IC50 [1]: 6.17 µM
IC50 [2]: 3.4 µM
Metabolism MLM [3]: 8.6 min
Metabolism HLM [4]: 23 min

COc1cc(-c2nc3ccc(C(=O)NCCCN4CCN(c5ccccc5)CC4)cc3n2C2CCC2)cc(OC)c1OC [CDD-2315, 1-cyclobutyl-N-(3-(4-phenylpiperazin-1-yl)propyl)-2-(3,4,5-trimethoxyphenyl)-1H-benzo[d]imidazole-6-carboxamide]
IC50 [1]: 0.56 µM
IC50 [2]: 2.6 µM
Metabolism MLM [3]: 6.3 min
Metabolism HLM [4]: 7.8 min
inhibition of BMP2-induced luciferase activity [5]: Potent inhibition
suppression of BMP2-induced pSMAD1/5 activation, FOP fibroblasts [6]: suppressed
suppression of BMP2-induced pSMAD1/5 activation, WT fibroblasts [7]: suppressed

CNC(=O)[C@H]1C[C@H](n2c(-c3cc(F)cc(OC)c3)nc3ccc(C(=O)NCCCN4CCN(c5ccccc5)CC4)cc32)C1 [CDD-2340, 2-(3-fluoro-5-methoxyphenyl)-1-((1r,3r)-3-(methylcarbamoyl)cyclobutyl)-N-(3-(4-phenylpiperazin-1-yl)propyl)-1H-benzo[d]imidazole-6-carboxamide]
IC50 [1]: 5.3 µM
IC50 [2]: 9.2 µM
Metabolism MLM [3]: 7.1 min
Metabolism HLM [4]: 24.4 min
inhibition of BMP2-induced luciferase activity [5]: Potent inhibition
suppression of BMP2-induced pSMAD1/5 activation, FOP fibroblasts [6]: suppressed
suppression of BMP2-induced pSMAD1/5 activation, WT fibroblasts [7]: suppressed

CNC(=O)[C@H]1C[C@H](n2c(-c3ccc(OC)c(OC)c3)nc3ccc(C(=O)NCCCN4CCN(c5cccc(C)c5C)CC4)cc32)C1 [CDD-2421, 2-(3,4-dimethoxyphenyl)-N-(3-(4-(2,3-dimethylphenyl)piperazin-1-yl)propyl)-1-((1r,3r)-3-(methylcarbamoyl)cyclobutyl)-1H-benzo[d]imidazole-6-carboxamide]
IC50 [1]: 1.24 µM
IC50 [2]: 2.4 µM
Metabolism MLM [3]: 3.7 min
Metabolism HLM [4]: 6 min

COc1cc(F)cc(-c2nc3ccc(C(=O)NCCCN(C)C)cc3n2C2CCC2)c1 [CDD-2617, 1-cyclobutyl-N-(3-(dimethylamino)propyl)-2-(3-fluoro-5-methoxyphenyl)-1H-benzo[d]imidazole-6-carboxamide]
IC50 [1]: 10.7 µM
IC50 [2]: 13.4 µM
Metabolism MLM (Min) [3]: 78.5 (1.3 h) Min
Metabolism HLM (Min) [4]: 194 (3.2 h) Min

CNC(=O)[C@H]1C[C@H](n2c(-c3cc(OC)cc(OC)c3)nc3ccc(C(=O)NCCCN(C)C)cc32)C1 [CDD-2686, 2-(3,5-dimethoxyphenyl)-N-(3-(dimethylamino)propyl)-1-((1r,3r)-3-(methylcarbamoyl)cyclobutyl)-1H-benzo[d]imidazole-6-carboxamide]
IC50 [8]: 0.0343 µM
IC50 [9]: 0.0722 µM
IC50 [1]: 28.2 µM
IC50 [2]: 29.6 µM
IC50 [10]: > 40 µM

CNC(=O)[C@H]1C[C@H](n2c(-c3cc(OC)ccc3OC)nc3ccc(C(=O)NCCCN(C)C)cc32)C1 [CDD-2687, 2-(2,5-dimethoxyphenyl)-N-(3-(dimethylamino)propyl)-1-((1r,3r)-3-(methylcarbamoyl)cyclobutyl)-1H-benzo[d]imidazole-6-carboxamide]
IC50 [8]: 0.0251 µM
IC50 [9]: 0.0787 µM
IC50 [1]: > 40 µM
IC50 [2]: > 40 µM
IC50 [10]: > 40 µM

COc1cc(-c2nc3ccc(C(=O)NCCCN4CCN(c5ccccn5)CC4)cc3n2C2CCC2)cc(OC)c1OC [CDD-2787, 1-cyclobutyl-N-(3-(4-(pyridin-2-yl)piperazin-1-yl)propyl)-2-(3,4,5-trimethoxyphenyl)-1H-benzo[d]imidazole-6-carboxamide]
IC50 [1]: 0.473 µM
IC50 [2]: 0.705 µM
Metabolism MLM [3]: 3.3 min
Metabolism HLM [4]: 9.8 min
inhibition of BMP2-induced luciferase activity [5]: Potent inhibition
suppression of BMP2-induced pSMAD1/5 activation, FOP fibroblasts [6]: suppressed
suppression of BMP2-induced pSMAD1/5 activation, WT fibroblasts [7]: suppressed

COc1cc(-c2nc3ccc(C(=O)NCCCN4CCN(c5ccccc5)C(=O)C4)cc3n2C2CCC2)cc(OC)c1OC [CDD-2790, 1-cyclobutyl-N-(3-(3-oxo-4-phenylpiperazin-1-yl)propyl)-2-(3,4,5-trimethoxyphenyl)-1H-benzo[d]imidazole-6-carboxamide]
IC50 [1]: 1.82 µM
IC50 [2]: 2.27 µM
Metabolism MLM [3]: 6.1 min
Metabolism HLM [4]: 9.0 min

COc1cc(-c2nc3ccc(C(=O)NCCCN4CCN(C5CCCCC5)CC4)cc3n2C2CCC2)cc(OC)c1OC [CDD-2792, 1-cyclobutyl-N-(3-(4-cyclohexylpiperazin-1-yl)propyl)-2-(3,4,5-trimethoxyphenyl)-1H-benzo[d]imidazole-6-carboxamide]
IC50 [1]: 0.358 µM
IC50 [2]: 0.849 µM
Metabolism MLM [3]: 10 min
Metabolism HLM [4]: 38.3 min

From patent publication US20260217660A1, “INHIBITORS OF ACTIVIN RECEPTOR TYPE I (ACVRI) AND ACTIVIN RECEPTOR LIKE TYPE I (ACVRLI), AND METHODS USING SAME” (Baylor College of Medicine, priority 2023, published 2026)
